# Literature values in patent publication US20140038836A1, “Novel Pharmacogene Single Nucleotide Polymorphisms and Methods of Detecting Same” (priority 2012, published 2014).
# Read-outs that look alike come from different tables or passages of the source.
# Assays:
# [1] = target: T1, ADRA2A (alpha2A subtype alpha-2-adrenergic receptor) (Homo sapiens, UniProt P08913); settings: for rank order for antagonists: antagonists of the alpha2A receptor; for rank order of potency for agonists: agonists of the alpha2A receptor
# T1 sequence (P08913 1-465): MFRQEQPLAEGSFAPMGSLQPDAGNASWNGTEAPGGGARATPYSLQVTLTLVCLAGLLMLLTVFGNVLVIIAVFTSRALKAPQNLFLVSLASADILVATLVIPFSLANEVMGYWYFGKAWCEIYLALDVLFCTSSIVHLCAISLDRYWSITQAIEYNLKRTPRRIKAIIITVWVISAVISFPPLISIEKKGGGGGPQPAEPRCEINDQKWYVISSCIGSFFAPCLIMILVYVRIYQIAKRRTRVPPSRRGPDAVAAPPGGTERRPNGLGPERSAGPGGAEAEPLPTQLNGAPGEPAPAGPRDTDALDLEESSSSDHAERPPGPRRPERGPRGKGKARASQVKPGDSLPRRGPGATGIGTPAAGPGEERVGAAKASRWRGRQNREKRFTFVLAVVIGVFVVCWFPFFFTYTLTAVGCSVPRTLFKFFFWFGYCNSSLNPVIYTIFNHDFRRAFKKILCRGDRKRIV
# [2] = test system: psychotic Caucasian patients; settings: 3435CC or 2677GG genotypes versus heterozygous or TT carriers
# [3] = homozygote ABCB1 3435TT carriers
# [4] = test system: patients of Asian ethnicity with Major Depressive Disorder; settings: carriers of 3435TT (rs1045642) genotype, p=0.001
# [5] = test system: Caucasian patients with major depression; settings: ABCB1 3435TT allele; P=0.042, 95% CI 1.01-1.86
# [6] = test system: patients with schizophrenia; settings: (T) allele of rs3813929
# [7] = test system: Japanese major depression sample; settings: 3435TT genotype (p=0.0008), haplotype block 3435C-2677G-1236T, 6 weeks
# [8] = test system: schizophrenic Chinese patients from Shanghai; settings: 230-bp allele of (GT)n repeat or 230-bp/C-270/rs6265G haplotype versus other alleles or haplotypes
# [9] = test system: patients diagnosed with generalized anxiety disorder; settings: carriers of HTR2A rs7997012 G-allele
compound,measurement,setting,value
C=CCc1ccccc1OCC(O)CNC(C)C (stereo not shown) [alprenolol],rank order for antagonists,[1],yohimbine>phentolamine=mianserine>chlorpromazine=spiperone=prazosin>propanolol>alprenolol=pindolol
CN(C)CCC=C1c2ccccc2CCc2ccccc21 [amitriptyline],P-gp substrate property,P-gp,substrates of P-gp
CN(C)CCCN1c2ccccc2Sc2ccc(Cl)cc21 [chlorpromazine],rank order for antagonists,[1],yohimbine>phentolamine=mianserine>chlorpromazine=spiperone=prazosin>propanolol>alprenolol=pindolol
CN(C)CCCC1(c2ccc(F)cc2)OCc2cc(C#N)ccc21 (stereo not shown) [citalopram],P-gp substrate property,P-gp,substrates of P-gp
Clc1cccc(Cl)c1N=C1NCCN1 [clonidine],rank order of potency for agonists,[1],oxymetazoline>clonidine>epinephrine>norepinephrine>phenylephrine>dopamine>p-synephrine>p-tyramine>serotonin=p-octopamine
CN1CCN(C2=Nc3cc(Cl)ccc3Nc3ccccc32)CC1 [clozapine],dose-normalized clozapine levels,[2],significantly lower
C[C@H]1O[C@@H](O[C@H]2[C@@H](O)C[C@H](O[C@H]3[C@@H](O)C[C@H](O[C@H]4CC[C@@]5(C)[C@H](CC[C@@H]6[C@@H]5C[C@@H](O)[C@]5(C)[C@@H](C7=CC(=O)OC7)CC[C@]65O)C4)O[C@@H]3C)O[C@@H]2C)C[C@H](O)[C@@H]1O [digoxin],digoxin plasma levels after oral administration,[3],increased
CNC[C@H](O)c1ccc(O)c(O)c1 [epinephrine],rank order of potency for agonists,[1],oxymetazoline>clonidine>epinephrine>norepinephrine>phenylephrine>dopamine>p-synephrine>p-tyramine>serotonin=p-octopamine
CN(C)CCC[C@@]1(c2ccc(F)cc2)OCc2cc(C#N)ccc21 [escitalopram],remission on the antidepressant,[4],slower remission
CN1CCN2c3ccccc3Cc3ccccc3C2C1 (stereo not shown) [mianserine],rank order for antagonists,[1],yohimbine>phentolamine=mianserine>chlorpromazine=spiperone=prazosin>propanolol>alprenolol=pindolol
CN1CCN2c3ncccc3Cc3ccccc3C2C1 (stereo not shown) [mirtazapine],P-gp substrate property,P-gp,not substrates of P-gp
NC[C@H](O)c1ccc(O)c(O)c1 [norepinephrine],rank order of potency for agonists,[1],oxymetazoline>clonidine>epinephrine>norepinephrine>phenylephrine>dopamine>p-synephrine>p-tyramine>serotonin=p-octopamine
CNCCC=C1c2ccccc2CCc2ccccc21 [nortriptyline],OR for nortriptyline-induced postural hypotension,[5],1.37
Cc1cc2c(s1)Nc1ccccc1N=C2N1CCN(C)CC1 [olanzapine],effect on weight gain,[6],protective effect against weight-gain
Cc1cc(C(C)(C)C)c(O)c(C)c1CC1=NCCN1 [oxymetazoline],rank order of potency for agonists,[1],oxymetazoline>clonidine>epinephrine>norepinephrine>phenylephrine>dopamine>p-synephrine>p-tyramine>serotonin=p-octopamine
NCC(O)c1ccc(O)cc1 (stereo not shown) [p-octopamine],rank order of potency for agonists,[1],oxymetazoline>clonidine>epinephrine>norepinephrine>phenylephrine>dopamine>p-synephrine>p-tyramine>serotonin=p-octopamine
CNCC(O)c1ccc(O)cc1 (stereo not shown) [p-synephrine],rank order of potency for agonists,[1],oxymetazoline>clonidine>epinephrine>norepinephrine>phenylephrine>dopamine>p-synephrine>p-tyramine>serotonin=p-octopamine
NCCc1ccc(O)cc1 [p-tyramine],rank order of potency for agonists,[1],oxymetazoline>clonidine>epinephrine>norepinephrine>phenylephrine>dopamine>p-synephrine>p-tyramine>serotonin=p-octopamine
Fc1ccc([C@@H]2CCNC[C@H]2COc2ccc3c(c2)OCO3)cc1 [paroxetine],response to paroxetine,[7],poor response
same,P-gp substrate property,P-gp,substrates of P-gp
Cc1ccc(N(CC2=NCCN2)c2cccc(O)c2)cc1 [phentolamine],rank order for antagonists,[1],yohimbine>phentolamine=mianserine>chlorpromazine=spiperone=prazosin>propanolol>alprenolol=pindolol
CC(C)NCC(O)COc1cccc2[nH]ccc12 (stereo not shown) [pindolol],rank order for antagonists,[1],yohimbine>phentolamine=mianserine>chlorpromazine=spiperone=prazosin>propanolol>alprenolol=pindolol
Cc1nc2n(c(=O)c1CCN1CCC(c3noc4cc(F)ccc34)CC1)CCCC2 [risperidone],AUC of risperidone,"3435TT versus 3435CC subjects who were CYP2D6*10/*10, P=0.001",higher
same,metabolic ratios of risperidone,"3435TT versus 3435CC with CYP2D6*10/*10, P=0.006",higher
same,AUC of risperidone,"between ABCB1 3435C>T genotypes, healthy subjects (n=72), 2 mg",no significant differences
same,response to risperidone,[8],better response
NCCc1c[nH]c2ccc(O)cc12 [serotonin],rank order of potency for agonists,[1],oxymetazoline>clonidine>epinephrine>norepinephrine>phenylephrine>dopamine>p-synephrine>p-tyramine>serotonin=p-octopamine
O=C(CCCN1CCC2(CC1)C(=O)NCN2c1ccccc1)c1ccc(F)cc1 [spiperone],rank order for antagonists,[1],yohimbine>phentolamine=mianserine>chlorpromazine=spiperone=prazosin>propanolol>alprenolol=pindolol
COc1ccc(C(CN(C)C)C2(O)CCCCC2)cc1 (stereo not shown) [venlafaxine XR],treatment outcome over time,[9],better treatment outcome
COc1ccc(C(CN(C)C)C2(O)CCCCC2)cc1 (stereo not shown) [venlafaxine],P-gp substrate property,P-gp,substrates of P-gp
COC(=O)[C@@H]1[C@H]2C[C@H]3c4[nH]c5ccccc5c4CCN3C[C@@H]2CC[C@@H]1O [yohimbine],rank order for antagonists,[1],yohimbine>phentolamine=mianserine>chlorpromazine=spiperone=prazosin>propanolol>alprenolol=pindolol
